# From a melting point compilation (Tetko et al.; mined from patent text by program, amines drawn as free bases though some values may be those of a salt)
row,SMILES,melting point [°C]
1,CC(=O)Nc1cc(F)ccc1SCC#N,113 to 115
2,Cc1ccc(S(=O)(=O)Cc2ccccc2)cc1,49 to 51
3,CCCc1nc(C)c2nnc3ccc(F)cc3n12,124 to 126
4,CCCCCCc1cc2c(cc1C(=O)Oc1ccc(C(=O)O)cn1)CCCCC2(C)C,119 to 120
5,CCN1C(=O)NC(=C(C(C)=O)C(C)=O)C1=O,152 to 153
6,CC(=O)NC[C@H]1CN(c2ccc(C(=O)c3cnc4c5ccccc5ccn34)cc2)C(=O)O1,239 to 240
7,O=C1c2ccccc2C(=O)N1CCn1nc(O)c2[nH]c3cc(Cl)ccc3c(=O)c2c1=O,349 to 352
8,CCCNc1nc(C)c(CCO)c(=O)n1C,240
9,CN1C(=O)CC[C@]2(C)c3ccc(-c4ccc(F)cc4C(F)(F)F)cc3CC[C@@H]12,70
10,CCc1cccc2c1[nH]c1c2ccc2cc[nH]c21,256 to 258
11,O=C1CC2CCCC3(C2)c2cccn2CCN13 (stereo unspecified),130 to 132
12,O=C(O)C(Cc1ccccc1)Oc1ccc2cc(-c3ccc(-c4ccccc4)[nH]3)ccc2c1 (stereo unspecified),176 to 178
13,CN1C(=O)C(C(=O)Nc2ccc(Oc3nc4ccc(Cl)cc4s3)cc2)C(=O)N(C)C1=S,213 to 215
14,COC(=O)c1ccc(OCCF)cc1,77
15,O=C(/C=C/c1ccc2c(/C=C/C(=O)N3CCCC3)c[nH]c2c1)N1CCCC1,268 to 270
16,COc1cc2ncnc(N3CCC(C(C)(O)CN4CCC(C)NS4(=O)=O)CC3)c2cc1OC (stereo unspecified),186 to 188
17,CN1C(=O)CC[C@]2(C)c3ccc(-c4ccc5c(c4)CCC5=O)cc3CC[C@@H]12,175 to 178
18,O=C(Nc1ccccc1C(=O)NCCc1ncc[nH]1)c1ccc(Cl)cc1Cl,178 to 186
19,CCC(=O)OC1(C(=O)CCl)CCC2C3CCC4CC(=O)CCC4(C)C3(F)C(=O)CC21C (stereo unspecified),168
20,O=C(Nc1ccc(Cl)nc1)c1cc2cc(F)ccc2n1Cc1ccncc1,244 to 246
21,Cc1cc(C)cc(NC(=O)NC2CC2)c1,169
22,CSC(=N)NS(=O)(=O)c1c(Cl)sc(Cl)c1Br,113 to 115
23,CNS(=O)(=O)c1cc(OC)c(OC)c(C(=O)NCC2CCCN2CC2CC2)c1 (stereo unspecified),110 to 112
24,O=C(O)c1cc([N+](=O)[O-])cc2ccc(-c3ccccc3)nc12,268 to 269

row,SMILES,melting point [°C]
1,CC(C)(C)OC(=O)N[C@@H](Cc1ccc(O)cc1)C(=O)N[C@H](Cc1ccccc1)C(=O)NCC(=O)OCc1ccccc1,169
2,C=CCN1CCN(c2nc3cccccc-3n2)CC1,108 to 111
3,COc1cc(N2CCC(N3CCOCC3)C2)ccc1Nc1ncc2ccc(-c3ccccc3N(C)S(C)(=O)=O)n2n1 (stereo unspecified),110 to 119
4,COCCN1CCc2cc(Nc3ncc(Cl)c(Nc4ccccc4S(=O)(=O)N(C)C)n3)c(OC)cc2CC1,54 to 64
5,COc1ccc([C@]2(C)C=Cc3cc(OC)ccc3[C@H]2C=O)cc1 (relative stereo),127
6,NS(=O)(=O)c1ccc(-c2noc(-c3cnc4ccc(-c5ccc(Cl)cc5)cn34)n2)s1,263
7,"c1ccc(-c2ccc(C3CN4CCC3CC4)cc2)cc1 (single isomer, unassigned; (+))",85 to 86
8,"CCCCCCCCCCOc1ccc(-c2ccc(CCC(C)O)cc2)cc1 (single isomer, unassigned; (+))",87 to 89
9,CCOC(=O)/C=C/c1c(-c2ccc(F)cc2)n(C(C)C)c(=O)c2ccccc12,167 to 169
10,Cc1ccc(C2CC(C(C)(C)C)=NN2c2ccc(C(=O)O)cc2)cc1 (stereo unspecified),195
11,CCCCCC(=O)NCc1ccc(C(=O)O)cc1,178 to 179
12,CC(=O)NC[C@H]1CN(c2ccc(C(=O)c3cnc4ccc([N+](=O)[O-])cn34)cc2)C(=O)O1,223 to 225
13,N#Cc1ccc(-c2ccc(N3CCOCC3)cc2)[nH]c1=O,272 to 275
14,COc1ccc2[nH]c3ccccc3c2c1,148 to 150
15,CC(c1oc2ccccc2c(=O)c1-c1ccccc1)n1nc(-c2cn[nH]c2)c2c(N)ncnc21 (stereo unspecified),214 to 217
16,CCOC(=O)CCc1c(OC)cncc1OC,66 to 67
17,COc1ccc(-c2cc(CN3CCN(C)CC3)c(=O)n(CC=Cc3ccc(Cl)cc3)n2)cc1F,124 to 126
18,NC(=O)c1cccc(OC2C(C(=O)O)=CC=CN2Cc2ccccc2Cl)c1 (stereo unspecified),220 to 224
19,CCn1c(=N)c(-c2ccc(-c3ccccc3)cc2)cc2cnc(Nc3ccccc3)nc21,245 to 249
20,COc1ccc(N)c(OC)c1COc1cccc2ccc(C)nc12,208 to 210
21,CNC(=O)Oc1ccc(N=Cc2ccccc2O)c2ccccc12,143 to 146
22,CCCCC(CC)COc1cc2c3c(c4cc(OCC(CC)CCCC)c(OCC(CC)CCCC)cc4c2cc1OCC(CC)CCCC)C(=O)C=CC3=O (stereo unspecified),105 to 107
23,CS(=O)(=O)CC(=O)c1ccc(Cl)cc1,132 to 137
24,Cc1cccc(NC(=O)NC2N=C(C(C)C)c3cccc(C)c3N(CC(=O)N3CC4CCC(CC4)C3)C2=O)c1 (stereo unspecified),190 to 193

row,SMILES,melting point [°C]
1,Cn1c(=O)c2c(-c3nc(C4CC4)no3)ncn2c2ccccc21,184 to 190
2,ClCc1cnc2cc(Cl)ccc2c1Cl,106 to 107
3,CCCCC(C(=O)O)C1=C(c2ccccc2)c2ccccc2OC1 (stereo unspecified),117 to 119
4,CCCOc1ccc(S(=O)(=O)N2CCN(C(C)=O)CC2)cc1-c1nc2cc(Cl)c([N+](=O)[O-])cc2c(=O)[nH]1,215 to 217
5,COc1cc(Nc2c(C#N)cnc3cc(-c4ccc(C=O)cc4)sc23)c(Cl)cc1Cl,261 to 262
6,CCc1cccc(C)c1CNc1cc(C(=O)N2CCOCC2)cc2c1nc(C)n2C,229 to 231
7,N#CC(=CNC1CC1)C(=O)c1ccc(Cl)cc1Cl,93 to 94
8,CN1c2ccc(Cl)cc2C(c2ccccc2[N+](=O)[O-])=Nc2cccnc21,165 to 166
9,CCCCCc1ccc(OC(=O)Oc2ccc([N+](=O)[O-])cc2)cc1,67 to 69
10,CS(=O)(=O)c1ccc(-c2cnn(-c3cccc(Cl)c3)c(=O)c2COc2ccc(F)cc2)cc1,50 to 80
11,CCC1(C=O)CSc2ccccc2C(c2ccccc2)=N1 (racemic),98 to 100
12,FC(F)(F)CCN1CCN(Cc2ccc3c(c2)-c2[nH]nc(-c4ccsc4)c2C3)CC1,195 to 200
13,COc1nc2cc([N+](=O)[O-])c(C)c(C(=O)NCCC(=O)OC(C)(C)C)c2nc1OC,140 to 142
14,CCCc1nc2c(N)nc3cc(OCc4cccnc4)ccc3c2s1,167 to 169
15,O=C(O)c1ccc(CNc2cc(Br)ccc2OCc2ccccc2)cc1,216 to 217
16,COc1cccc2c(=O)n(C(C)(C)C(=O)O)c(=O)[nH]c12,255 to 258
17,C#CCc1ccc2c(C)c(C(=O)O)c(=O)oc2c1,172
18,CN1CCN(c2ccc(F)cc2C=C2CCCN(CCc3ccc(Cl)cc3)C2=O)CC1,88 to 90
19,Cn1cc(C(=O)NCc2ccc(Cl)cc2)c(=O)c2cc(CC3CCOCC3)cc(C#CCO)c21,166 to 168
20,C=C[C@@H](C)[C@H]1CC[C@H]2[C@@H]3CCC4=CC(=O)CC[C@]4(C)[C@H]3CC[C@]12C,138 to 139
21,O=CN1CCN(c2ncc3c(=O)c(C(=O)O)c[nH]c3n2)CC1,> 300
22,O=C(Nc1ccc(OCc2ccccc2)cc1)C(Br)CCBr (racemic),140 to 142
23,COC(=O)Cn1c(=O)c2ccccc2n(CCCCN2CCC(OC(c3ccccc3)c3ccccc3)CC2)c1=O,91 to 93
24,CCCN(Sc1nc2ccccc2s1)C(C)(C)C,55 to 56

row,SMILES,melting point [°C]
1,N#CC(C#N)=C1Sc2nc3ccc(Cl)cc3nc2S1,> 300
2,O=[N+]([O-])c1cc(-c2ccoc2)ccc1Nc1cc(-n2ccnc2)ncn1,198 to 200
3,COc1ccc(OC)n2nc(S(=O)(=O)Nc3c(F)cccc3F)nc12,319 to 320
4,O=C1CCC(=O)N1c1nc(Nc2ccc(O)c(Cl)c2)cc(-c2ccccc2)n1,274 to 276
5,Nc1ccc(F)c(O)c1,156 to 157
6,CC1(C)CC(=O)c2c(S(C)(=O)=O)sc(C(=O)O)c2C1,208
7,CC(=O)OC1CCC2(C)C(CCC3C4CCC(C(C)=O)C4(C)CC(=O)C32Cl)C1 (stereo unspecified),151 to 154
8,CCCc1nc(Br)c(C(C)(O)C(=O)O)n1Cc1ccc(-c2ccccc2S(=O)(=O)NC(=O)NCc2ccccc2)cc1 (stereo unspecified),153
9,CCCCCCCCCCCCCCSc1ccc(C(=O)O)s1,106 to 108
10,COC(=O)c1cccc(CN2C(=O)C(CCOc3ccc(CCNC(=O)OC(C)(C)C)cc3)Oc3ccccc32)c1 (stereo unspecified),112 to 113
11,O=C1CCC(c2ccc3c(c2)CC(NC(=O)Nc2ccccc2)C3)=NN1 (stereo unspecified),249 to 251
12,COc1ccc2c(c1)c(Cc1cc(=O)n(C3CCCCC3)[nH]1)c(C)n2C(=O)c1ccc(Cl)c(Cl)c1,104 to 107
13,CCOc1cc2c(Cl)c(C#N)cnc2cc1F,165 to 166
14,N#Cc1cnn(-c2ccc(NN)nn2)c1N,264 to 266
15,COc1ccc2nc(Nc3ccc(F)cc3C)nc(N(C)c3ccccc3)c2c1,248 to 250
16,CCOC(=O)c1ncn2c(-c3cccc(C(F)(F)F)c3)ccnc12,232 to 234
17,CCN(CC)c1ccc(S(=O)(=O)N2CCCCC2=O)cc1,118 to 120
18,CSc1ccc(-c2coc3ccc(-c4nnc(C)o4)cc23)cc1OC(F)(F)F,185 to 186
19,CC(=O)NC(COCc1cc(C)cc(C)c1)Cc1cccc2ccccc12 (stereo unspecified),119 to 120
20,CCOC(=O)C(C#N)=CN(C)C1CCCCC1,71 to 72
21,COc1ccccc1N1C=C(C(Cl)(Cl)Cl)CN(C(Cl)(Cl)Cl)N1,93 to 95
22,Nc1nc2cc(-c3cccc(C(=O)N4CCCC4)c3)ccc2c2c1nc(CO)n2CC1CCOCC1,281 to 284
23,COc1ccc(/C=C/C(=O)Nc2ccc(C(=O)O)cc2)cc1OC,258 to 259
24,O=c1cc(NCCN2CCN(c3cc(Cl)cc4c3OCCO4)CC2)cn[nH]1,115 to 117
